In patent US11014929B2, “Pyrazolopyrimidine compounds and uses thereof” (Incyte Corporation, priority 2016, dated 2021):
One block for each compound: values may come before it.

Target: HPK1 (Homo sapiens (Human), UniProt Q92918)
Test: HPK1 Kinase Binding Assay
Conditions: LanthaScreen tracer 222 binding, active HPK1, one hour incubation at 25° C.
Experimental: A stock solution of 1 mM test compound was prepared in DMSO. The compound plate was prepared by 3-fold and 11-point serial dilutions. 0.1 μL of the compound in DMSO was transferred from the compound plate to the white 384 well polystyrene plates. The assay buffer contained 50 mM HEPES, pH 7.5, 0.01% Tween-20, 5 mM MgCl2, 0.01% BSA, and 5 mM DTT. 5 μl of 4 nM active HPK1 (SignalChem M23-11G) prepared in the buffer was added to the plate. The enzyme concentration given was based on the given stock concentration reported by the vender. 5 μl of 18 nM tracer 222 (ThermoFisher PV6121) and 4 nM LanthaScreen Eu-Anti GST antibody (ThermoFisher PV5595) were added. After one hour incubation at 25° C., the plates were read on a PHERAstar FS plate reader (BMG Labtech). Ki values were determined.

Chain of HPK1 (Q92918 1-346): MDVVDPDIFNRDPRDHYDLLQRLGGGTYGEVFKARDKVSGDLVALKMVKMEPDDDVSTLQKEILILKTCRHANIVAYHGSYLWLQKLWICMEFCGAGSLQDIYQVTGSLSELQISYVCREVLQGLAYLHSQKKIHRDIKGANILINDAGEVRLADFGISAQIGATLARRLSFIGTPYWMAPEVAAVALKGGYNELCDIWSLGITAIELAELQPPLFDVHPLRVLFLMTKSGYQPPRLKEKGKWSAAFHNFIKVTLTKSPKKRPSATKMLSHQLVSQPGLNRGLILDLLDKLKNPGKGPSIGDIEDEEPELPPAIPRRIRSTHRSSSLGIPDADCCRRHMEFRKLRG

Structure (SMILES): CCN1CCN(c2ccc(-c3n[nH]c4cnc(-c5c(F)cc(CNC)cc5F)nc34)cc2)CC1 [Example 67, 1-(4-(3-(4-(4-Ethylpiperazin-1-yl)phenyl)-1H-pyrazolo[4,3-d]pyrimidin-5-yl)-3,5-difluorophenyl)-N-methylmethanamine]
Ki: ≤ 100 nM

Structure (SMILES): CNCc1cc(F)c(-c2ncc3[nH]nc(-c4cnc(N5CCOCC5)c(C#N)c4)c3n2)c(F)c1 [Example 68, 5-(5-(2,6-Difluoro-4-((methylamino)methyl)phenyl)-1H-pyrazolo[4,3-d]pyrimidin-3-yl)-2-morpholinonicotinonitrile]
Ki: ≤ 100 nM

Structure (SMILES): CNCc1cc(F)c(-c2ncc3[nH]nc(-c4ccnc(N5CCOCC5)c4F)c3n2)c(F)c1 [Example 69, 1-(3,5-Difluoro-4-(3-(3-fluoro-2-morpholinopyridin-4-yl)-1H-pyrazolo[4,3-d]pyrimidin-5-yl)phenyl)-N-methylmethanamine]
Ki: ≤ 100 nM

Structure (SMILES): CNCc1cc(F)c(-c2ncc3[nH]nc(-c4ccc(N5CCN(CC(C)(C)O)CC5)nc4)c3n2)c(F)c1 [Example 70, 1-(4-(5-(5-(2,6-Difluoro-4-((methylamino)methyl)phenyl)-1H-pyrazolo[4,3-d]pyrimidin-3-yl)pyridin-2-yl)piperazin-1-yl)-2-methylpropan-2-ol]
Ki: ≤ 100 nM

Structure (SMILES): CNCc1cc(F)c(-c2ncc3[nH]nc(-c4ccc(N5CCCC(C)(CO)C5)nc4)c3n2)c(F)c1 (centres unmarked) [Example 71, (1-(5-(5-(2,6-Difluoro-4-((methylamino)methyl)phenyl)-1H-pyrazolo[4,3-d]pyrimidin-3-yl)pyridin-2-yl)-3-methylpiperidin-3-yl)methanol]
Ki: ≤ 100 nM

Structure (SMILES): CNCc1cc(F)c(-c2ncc3[nH]nc(-c4ccc(N5CCN(CCO)CC5)cc4)c3n2)c(F)c1 [Example 73, 2-(4-(4-(5-(2,6-Difluoro-4-((methylamino)methyl)phenyl)-1H-pyrazolo[4,3-d]pyrimidin-3-yl)phenyl)piperazin-1-yl)ethanol]
Ki: ≤ 100 nM

Structure (SMILES): CNCc1cc(F)c(-c2ncc3[nH]nc(-c4ccc(N5CCN(S(C)(=O)=O)CC5)nc4)c3n2)c(F)c1 [Example 74, 1-(3,5-Difluoro-4-(3-(6-(4-(methylsulfonyl)piperazin-1-yl)pyridin-3-yl)-1H-pyrazolo[4,3-d]pyrimidin-5-yl)phenyl)-N-methylmethanamine]
Ki: ≤ 100 nM

Structure (SMILES): CCN(C)C(=O)N1CCN(c2ccc(-c3n[nH]c4cnc(-c5c(F)cc(CNC)cc5F)nc34)cn2)CC1 [Example 75, 4-(5-(5-(2,6-Difluoro-4-((methylamino)methyl)phenyl)-1H-pyrazolo[4,3-d]pyrimidin-3-yl)pyridin-2-yl)-N-ethyl-N-methylpiperazine-1-carboxamide]
Ki: ≤ 100 nM

Structure (SMILES): CNCc1cc(F)c(-c2ncc3[nH]nc(-c4ccc(N5CCN(C(C)=O)CC5)nc4)c3n2)c(C(F)(F)F)c1 [Example 77, 1-(4-(5-(5-(2-Fluoro-4-((methylamino)methyl)-6-(trifluoromethyl)phenyl)-1H-pyrazolo[4,3-d]pyrimidin-3-yl)pyridin-2-yl)piperazin-1-yl)ethanone]
Ki: ≤ 100 nM

Structure (SMILES): CNCc1cc(C)c(-c2ncc3[nH]nc(-c4cnn(C)c4)c3n2)c(F)c1 [Example 78, 1-(3-Fluoro-5-methyl-4-(3-(1-methyl-1H-pyrazol-4-yl)-1H-pyrazolo[4,3-d]pyrimidin-5-yl)phenyl)-N-methylmethanamine]
Ki: ≤ 100 nM

Structure (SMILES): CNCc1cc(C)c(-c2ncc3[nH]nc(-c4cnn(-c5ccccc5C#N)c4)c3n2)c(F)c1 [Example 79, 2-(4-(5-(2-Fluoro-6-methyl-4-((methylamino)methyl)phenyl)-1H-pyrazolo[4,3-d]pyrimidin-3-yl)-1H-pyrazol-1-yl)benzonitrile]
Ki: ≤ 100 nM

Structure (SMILES): Cc1cc(C2CCCN2)cc(F)c1-c1ncc2[nH]nc(-c3ccc(N4CCN(C)CC4)cc3)c2n1 (centres unmarked) [Example 80, 5-(2-Fluoro-6-methyl-4-(pyrrolidin-2-yl)phenyl)-3-(4-(4-methylpiperazin-1-yl)phenyl)-1H-pyrazolo[4,3-d]pyrimidine]
Ki: ≤ 100 nM

Structure (SMILES): Cc1cc(C2CCCCN2)cc(F)c1-c1ncc2[nH]nc(-c3ccc(N4CCN(C)CC4)cc3)c2n1 (centres unmarked) [Example 81, 5-(2-Fluoro-6-methyl-4-(piperidin-2-yl)phenyl)-3-(4-(4-methylpiperazin-1-yl)phenyl)-1H-pyrazolo[4,3-d]pyrimidine]
Ki: ≤ 100 nM

Structure (SMILES): Cn1cc(-c2n[nH]c3cnc(-c4c(F)cc(NC(=O)CN5CCCC5)cc4F)nc23)cn1 [Example 82, N-(3,5-Difluoro-4-(3-(1-methyl-1H-pyrazol-4-yl)-1H-pyrazolo[4,3-d]pyrimidin-5-yl)phenyl)-2-(pyrrolidin-1-yl)acetamide]
Ki: ≤ 100 nM

Structure (SMILES): CN(C)CC(=O)Nc1cc(F)c(-c2ncc3[nH]nc(-c4cnn(C)c4)c3n2)c(F)c1 [Example 83, N-(3,5-Difluoro-4-(3-(1-methyl-1H-pyrazol-4-yl)-1H-pyrazolo[4,3-d]pyrimidin-5-yl)phenyl)-2-(dimethylamino)acetamide]
Ki: ≤ 100 nM

Structure (SMILES): CNCc1cc(F)c(-c2ncc3[nH]nc(-c4cnn(C)c4)c3n2)c(F)c1 [Example 84, 1-(3,5-Difluoro-4-(3-(1-methyl-1H-pyrazol-4-yl)-1H-pyrazolo[4,3-d]pyrimidin-5-yl)phenyl)-N-methylmethanamine]
Ki: ≤ 100 nM

Structure (SMILES): CNC(C)c1cc(F)c(-c2ncc3[nH]nc(-c4cnn(C)c4)c3n2)c(F)c1 (centres unmarked) [Example 85, 1-(3,5-Difluoro-4-(3-(1-methyl-1H-pyrazol-4-yl)-1H-pyrazolo[4,3-d]pyrimidin-5-yl)phenyl)-N-methylethanamine]
Ki: ≤ 100 nM

Structure (SMILES): CNCc1cc(F)c(-c2ncc3[nH]nc(-c4cnn(C)c4)c3n2)c(OC)c1 [Example 86, 1-(3-Fluoro-5-methoxy-4-(3-(1-methyl-1H-pyrazol-4-yl)-1H-pyrazolo[4,3-d]pyrimidin-5-yl)phenyl)-N-methylmethanamine]
Ki: ≤ 100 nM

Structure (SMILES): CCNCc1cc(F)c(-c2ncc3[nH]nc(-c4cnn(C)c4)c3n2)c(OC)c1 [Example 87, N-(3-Fluoro-5-methoxy-4-(3-(1-methyl-1H-pyrazol-4-yl)-1H-pyrazolo[4,3-d]pyrimidin-5-yl)benzyl)ethanamine]
Ki: ≤ 100 nM

The next lines start with the values.

Ki: ≤ 100 nM
Structure (SMILES): COc1cccc(F)c1-c1ncc2[nH]nc(-c3ccc(N4CCN(C(C)=O)CC4)nc3)c2n1 [Example 54, 1-(4-(5-(5-(2-Fluoro-6-methoxyphenyl)-1H-pyrazolo[4,3-d]pyrimidin-3-yl)pyridin-2-yl)piperazin-1-yl)ethan-1-one]

Ki: ≤ 100 nM
Structure (SMILES): COc1cccc(F)c1-c1ncc2[nH]nc(/C=C/c3ccc(N4CCN(C)CC4)cc3)c2n1 [Example 55, (E)-5-(2-Fluoro-6-methoxyphenyl)-3-(4-(4-methylpiperazin-1-yl)styryl)-1H-pyrazolo[4,3-d]pyrimidine]

Ki: ≤ 100 nM
Structure (SMILES): CN1CCN(c2ccc(-c3n[nH]c4cnc(-c5c(F)ccc6c5CCNC6)nc34)cc2)CC1 [Example 56, 6-Fluoro-5-(3-(4-(4-methylpiperazin-1-yl)phenyl)-1H-pyrazolo[4,3-d]pyrimidin-5-yl)-1,2,3,4-tetrahydroisoquinoline]

Ki: ≤ 100 nM
Structure (SMILES): Cc1cccc(F)c1-c1ncc2[nH]nc(-c3ccc(N4CCCC(O)C4)cc3)c2n1 (centres unmarked) [Example 57, 1-(4-(5-(2-Fluoro-6-methylphenyl)-1H-pyrazolo[4,3-d]pyrimidin-3-yl)phenyl)piperidin-3-ol]

Ki: ≤ 100 nM
Structure (SMILES): Cc1cccc(F)c1-c1ncc2[nH]nc(-c3ccc(N4CCC(C#N)CC4)cc3)c2n1 [Example 58, 1-(4-(5-(2-Fluoro-6-methylphenyl)-1H-pyrazolo[4,3-d]pyrimidin-3-yl)phenyl)piperidine-4-carbonitrile]

Ki: ≤ 100 nM
Structure (SMILES): Cc1cccc(F)c1-c1ncc2[nH]nc(-c3ccc(N4CCNCC4)cc3)c2n1 [Example 59, 5-(2-Fluoro-6-methylphenyl)-3-(4-(piperazin-1-yl)phenyl)-1H-pyrazolo[4,3-d]pyrimidine]

Ki: ≤ 100 nM
Structure (SMILES): Cc1cccc(F)c1-c1ncc2[nH]nc(-c3ccc(N4CCC(O)C4)cc3)c2n1 (centres unmarked) [Example 60, 1-(4-(5-(2-Fluoro-6-methylphenyl)-1H-pyrazolo[4,3-d]pyrimidin-3-yl)phenyl)pyrrolidin-3-ol]

Ki: ≤ 100 nM
Structure (SMILES): CNCc1cc(F)c(-c2ncc3[nH]nc(-c4ccc(C(=O)NC)nc4)c3n2)c(F)c1 [Example 61, 5-(5-(2,6-Difluoro-4-((methylamino)methyl)phenyl)-1H-pyrazolo[4,3-d]pyrimidin-3-yl)-N-methylpicolinamide]

Ki: ≤ 100 nM
Structure (SMILES): CNCc1cc(F)c(-c2ncc3[nH]nc(-c4ccc(C(=O)NC)c(F)c4)c3n2)c(F)c1 [Example 62, 4-(5-(2,6-Difluoro-4-((methylamino)methyl)phenyl)-1H-pyrazolo[4,3-d]pyrimidin-3-yl)-2-fluoro-N-methylbenzamide]

Ki: ≤ 100 nM
Structure (SMILES): CNCc1cc(F)c(-c2ncc3[nH]nc(-c4ccc(OC)cc4)c3n2)c(F)c1 [Example 63, 1-(3,5-Difluoro-4-(3-(4-methoxyphenyl)-1H-pyrazolo[4,3-d]pyrimidin-5-yl)phenyl)-N-methylmethanamine]

Ki: ≤ 100 nM
Structure (SMILES): CNCc1cc(F)c(-c2ncc3[nH]nc(-c4cccc(C#N)c4)c3n2)c(F)c1 [Example 64, 3-(5-(2,6-Difluoro-4-((methylamino)methyl)phenyl)-1H-pyrazolo[4,3-d]pyrimidin-3-yl)benzonitrile]

Ki: ≤ 100 nM
Structure (SMILES): CNCc1cc(F)c(-c2ncc3[nH]nc(-c4ccc(C5CCNCC5)cc4)c3n2)c(F)c1 [Example 65, 1-(3,5-Difluoro-4-(3-(4-(piperidin-4-yl)phenyl)-1H-pyrazolo[4,3-d]pyrimidin-5-yl)phenyl)-N-methylmethanamine]

Ki: ≤ 100 nM
Structure (SMILES): CNCc1cc(F)c(-c2ncc3[nH]nc(-c4ccc(C5CCOCC5)cc4)c3n2)c(F)c1 [Example 66, 1-(3,5-Difluoro-4-(3-(4-(tetrahydro-2H-pyran-4-yl)phenyl)-1H-pyrazolo[4,3-d]pyrimidin-5-yl)phenyl)-N-methylmethanamine]
